From paper PMC3632207 (Journal of medicinal chemistry, 2013)

Biological target: rat nNOS (Rattus norvegicus, UniProt P29476)
Test: NOS inhibition, hemoglobin capture assay
Format: biochemical
Conditions: data not shown

Cc1cc(N)nc(CCc2cc(CCCN)cc(CCc3cc(C)cc(N)n3)c2)c1 [Compound 4, 6,6'-((5-(3-Aminopropyl)-1,3-phenylene)bis(ethane-2,1-diyl))bis(4-methylpyridin-2-amine)]
Competition with H4B: not to be competitive with H4B
